# According to PMC11671014 (PLOS Pathogens, 2024):
# Like-named read-outs stand apart in the source and are kept apart here.
# B1: Plasmodium falciparum cytoplasmic tyrosine tRNA synthetase (enzyme, P. falciparum)
# chain: METTDTKREEQEIEEKKAQEESKIEDVDKILNDILSISSECIQPDELRVKLLLKRKLICYDGFEPSGRMHIAQGLLKSIIVNKLTSNGCTFIFWIADWFAHLNNKMSGDLKKIKKVGSYFIEVWKSCGMNMENVQFLWASEEINKKPNEYWSLVLDISRSFNINRMKRCLKIMGRSEGEENYCSQILYPCMQCADIFFLNVDICQLGIDQRKVNMLAREYCDIKKIKKKPVILSHGMLPGLLEGQEKMSKSDENSAIFMDDSESDVNRKIKKAYCPPNVIENNPIYAYAKSIIFPSYNEFNLVRKEKNGGDKTYYTLQELEHDYVNGFIHPLDLKDNVAMYINKLLQPVRDHFQNNIEAKNLLNEIKKYKVTK
# notes: Plasmodium falciparum cytoplasmic tyrosine tRNA synthetase; also called PfTyrRS; His-PfTyrRS; source: E. coli BL21(DE3), purified (HisTrap HP, TEV cleavage, second HisTrap HP, Superdex 200 gel filtration)
# Experiments:
# [1] = system: P. falciparum Brazilian field isolates; experiment: Ex vivo drug susceptibility of Brazilian field isolates (P. falciparum); assay type: cell-based
# Method: (§1) Compounds were assayed on ten P. vivax isolates and seven P. falciparum Brazilian isolates collected from mono-infected patients, who had signed a written informed consent form to participate in the study, using previously described methods. The initial parasitemia ranged from 2,100–8,000 parasites/μL for P. vivax and 3,500–9,000 parasites/μL for P. falciparum isolates. Artesunate and chloroquine were assayed in parallel as standard compounds. The analyses included only the isolates that were incubated for ≥ 40 h with the compounds.
# [2] = system: P. vivax Brazilian field isolates; experiment: Ex vivo drug susceptibility of Brazilian field isolates (P. vivax); assay type: cell-based
# Method: as §1
# [3] = system: P. falciparum (strain 3D7A); parameters: method as in ref [1] Sanz et al., PloS one 2012; details: 10 x IC50; ref [1] Sanz et al., PloS one 2012; cited from earlier work
# Primary hepatocytes = experiment: Toxicity to primary hepatocyte host cells in the liver stage assay; assay type: cell-based, human; details: Homo sapiens, Hepatocyte, host cells of the NF175 experiment
# Method: (§2) Activity against liver stage parasites was performed using a modification of published procedures. Briefly, cryopreserved human primary hepatocytes (NF175: H1500.H15B+ Lot No. HC0-6, TebuBio or NF135: F00995-P Lot No. IRZ, BioIVT) were thawed and seeded at 18,000 cells per well in collagen-coated 384-well microtiter plates in medium containing 10% heat inactivated fetal bovine serum (hiFBS). Cells were cultured at 37°C in 5% CO2. For NF175, medium was replaced by fresh medium containing 10% hiFBS, 5 h post plating. For NF135, medium was replaced by medium containing 0.2% BSA, 24 h post plating. 48 h post plating, salivary glands from Plasmodium-NF175 or NF135-infected Anopheles stephensi mosquitoes were dissected, added to the hepatocytes (10,000 per well/ NF175; or 12,500 per well/ NF135) and allowed to infect for 3 hours. Sporozoites were then aspirated, and compounds diluted in medium containing 10% hiFBS or 0.2% BSA, were added to the hepatocytes. Medium containing 10% hiFBS or 0.2% BSA and compounds was refreshed daily for four days. Hepatocytes were fixed with ice-cold methanol and samples were blocked with 10% hiFBS in PBS. Schizonts were stained with rabbit anti-HSP70 in 10% hiFBS for 1–2 h followed by incubation with a mixture of secondary goat anti-rabbit AlexaFluor 594 antibody and 4′,6-diamidine-2′-phenylindole dihydrochloride (DAPI) in 10% hiFBS for 30 min. Samples were washed with PBS containing 0.05% Tween 20 between different steps. Cells were imaged on a PicoExpress high content imager, and images were analysed automatically using CellReporterXpress software. Data were analysed by logistic regression using a four-parameter (Hill equation) model and a least-squares method to find the best fit.
# [4] = system: P. falciparum liver stage schizont (NF175); experiment: Liver stage schizont assay in primary human hepatocytes (NF175); assay type: cell-based; details: Plasmodium falciparum, Hepatocyte, 96 h, four days
# Method: as §2, with “Hepatocytes were fixed with ice-cold methanol and samples were blocked with 10% hiFBS in PBS. Schizonts were stained with rabbit anti-HSP70 in 10% hiFBS for 1–2 h followed by incubation with a mixture of secondary goat anti-rabbit AlexaFluor 594 antibody and 4′,6-diamidine-2′-phenylindole dihydrochloride (DAPI) in 10% hiFBS for 30 min. Samples were washed with PBS containing 0.05% Tween 20 between different steps.” left out
# PfTyrRS [5] = target: T1, PfTyrRS (Plasmodium falciparum, UniProt Q8IAR7); experiment: ATP consumption by PfTyrRS (Kinase Glo); assay type: biochemical; details: PfTyrRS 25 nM, ATP 10 μM, tyrosine 200 μM, cognate tRNA^Tyr 4.8 μM, 37°C 1 h; read-out: Inhibition of PfTyrRS (Kinase Glo) IC50
# Method: Consumption of ATP was measured using a luciferase-based assay as per the manufacturer’s instructions (Kinase-Glo Luminescent Kinase Assay, Promega).
# [6] = system: P. falciparum (3D7, ring stage) cultures; experiment: P. falciparum 3D7 72-h growth inhibition, lactate dehydrogenase (PfLDH) assay; assay type: cell-based; details: Plasmodium falciparum, 72 h exposure
# Method: Routine analyses of antimalarial activity against P. falciparum 3D7 was tested by TCGLS (Kolkata, India) using the lactate dehydrogenase (PfLDH) growth inhibition assay as previously described. […] P. falciparum strain (3D7) was obtained from BEI Resources.
# PfTyrRS [7] = target: T1, PfTyrRS; experiment: Differential scanning fluorimetry (DSF) of PfTyrRS; assay type: binding
# Method: The effect on ML471 and analogues on the thermal stability of TyrRS enzymes was assayed as previously described. […] SYPRO Orange (Sigma-Aldrich; 5,000X concentrate in DMSO) was added to the reaction mixture at a final concentration of 5X. 25 μL of the sample was added into each well of a 96-well qPCR plate (Applied Biosystems). The plate was sealed and analysed using StepOnePlus Real-Time PCR system (Applied Biosystems). The samples were heated from 20°C to 90°C with a 1% continuous gradient. The thermal unfolding curve was plotted as the first derivative curve of the raw fluorescence values. The melting temperature (Tm), defined as the peak of the first derivative curve, was used to assess the thermal stability of protein-ligand complexes.
# HepG2 cells = experiment: HepG2 72-h viability, CellTiter-Glo; assay type: cell-based; details: Homo sapiens, 72 h exposure
# Method: The HepG2 (Human hepatocyte carcinoma) cell line was procured from ATCC (American Type Culture Collection, Manassas, USA; HB-8065) and viability assessed using CellTiter-Glo luminescent cell viability assay reagents (Promega). For the assay, 2,000 cells/well were plated in 384-well plates 24 h prior to the experiment and incubated at 37°C in a CO2 incubator. The medium was removed; and cells were treated with fresh medium containing either vehicle (0.5% DMSO) or serially diluted compounds or doxorubicin (1.3 nM to 25 μM) in a final volume of 50 μL/well and further incubated for 72 h at 37°C in a CO2 incubator. […] Following incubation, 25 μL of medium was discarded and 25 μl of CellTiter-Glo reagent was added to each well and the plate was kept on a plate shaker for 15 min at 25°C with shaking at 300 rpm. Luminescence signals were measured in a PHERAstar FSX reader (BMG LABTECH).
# [8] = target: the molecule itself; experiment: crystal structure; PfTyrRS (10 mg/mL) with 500 uM synthetic Tyr-ML471; sitting drop vapour diffusion at 20°C, 2.25 M sodium malonate pH 6; refined at 1.8 Å
molecule,measurement,setting,value
C[C@H]1[C@H](OC(=O)CCC(=O)O)O[C@@H]2O[C@@]3(C)CC[C@H]4[C@H](C)CC[C@@H]1[C@@]24OO3 [Artesunate],EC50,"[1]; Plasmodium falciparum; range over n = 7 isolates; read-out: EC50 range, P. falciparum Brazilian field isolates",0.8 to 3.1 nM
same,EC50,"[1]; Plasmodium falciparum; read-out: Median EC50, P. falciparum Brazilian field isolates",2.2 nM
same,EC50,"[2]; Plasmodium vivax; range over n = 10 isolates; read-out: EC50 range, P. vivax Brazilian field isolates",0.8 to 3.5 nM
same,EC50,"[2]; Plasmodium vivax; read-out: Median EC50, P. vivax Brazilian field isolates",1.7 nM
CCN(CC)CCCC(C)Nc1ccnc2cc(Cl)ccc12 (stereo not drawn) [Chloroquine],EC50,"[1]; Plasmodium falciparum, read-out: EC50 range, P. falciparum Brazilian field isolates",172 to 520 nM
same,EC50,"[1]; Plasmodium falciparum, read-out: Median EC50, P. falciparum Brazilian field isolates",286 nM
same,Lag phase,[3],0 h
same,PCT99.9%,[3],33.8 h
same,Slope,[3],-0.094
same,EC50,"[2]; Plasmodium vivax, read-out: EC50 range, P. vivax Brazilian field isolates",104 to 560 nM
same,EC50,"[2]; Plasmodium vivax, read-out: Median EC50, P. vivax Brazilian field isolates",143 nM
O=C1C(O)=C([C@H]2CC[C@H](c3ccc(Cl)cc3)CC2)C(=O)c2ccccc21 [Atovaquone],IC50,Primary hepatocytes,> 1000 nM
same,Lag phase,[3],48 h
same,Log PRR,[3],2.9
same,PCT99.9%,[3],90 h
same,Slope,[3],-0.060
same,IC50,[4],7 ± 3.9 nM
C[C@@H]1CC[C@H]2[C@@H](C)C(=O)O[C@@H]3O[C@@]4(C)CC[C@@H]1[C@]32OO4 [Artemisinin],Lag phase,[3],0 h
same,Log PRR,[3],> 4.8
same,PCT99.9%,[3],< 24 h
Nc1ncnc2c1c(C1CC1)nn2[C@@H]1O[C@H](COS(N)(=O)=O)[C@@H](O)[C@H]1O [ML864],IC50,PfTyrRS [5],8500 ± 4500 nM
same,IC50,[6],2.5 ± 0.6 nM
same,ΔTm at 50 µM,"PfTyrRS [7]; 50 μM sulfamate, ATP, tyrosine, PftRNA^Tyr, 37°C 2 h, read-out: PfTyrRS binding (DSF) Delta Tm",17 ± 0.1 °C
same,Kd,"PfTyrRS [7]; estimated from DSF with an irreversible thermal unfolding model, read-out: PfTyrRS binding (DSF) apparent KD",0.3 nM
same,PfTyrRS Tm,"PfTyrRS [7]; with sulfamate, ATP, tyrosine and tRNA, apo 49.9 ± 0.6",66.9 ± 0.5 °C
same,IC50,HepG2 cells,21300 nM
B1,stoichiometry N,[8],2
